Reference: patent US9051310B2, “Nicotinamide derivative or salt thereof” (FUJIFILM Corporation, priority 2011, dated 2015)
pIC50: −log10 of the molar value.

Legend:
[1] = target: T1, glutathione S-transferase (GST)-linked full-length human Syk protein (Homo sapiens, UniProt P43405); experiment: Syk enzyme assay; format: biochemical; settings: 0.83 nM Syk, time-resolved fluorescence; read-out: IC50 of Syk-inhibitory activity
T1 construct: glutathione S-transferase (GST)-linked full-length human Syk protein; purchased Carna Biosciences; host or cells: Baculovirus expression system
How it was run: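 Phosphotyrosine on a biotin-peptide substrate (0.5 μM) was read by time-resolved fluorescence at 615 and 665 nm with Eu-anti-pTyr antibody and APC-streptavidin after 1 h EDTA stop.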

[2] = tested on: THP-1 cells (phagocytosis of opsonized Escherichia coli); experiment: Antibody-dependent phagocytosis assay; format: cell-based; settings: Homo sapiens; IFNγ differentiated THP-1 cells, opsonized pHrodo Escherichia coli, 3 hours; read-out: IC50 upon phagocytosis inhibition
Experimental: THP-1 cells (2×10^5 cells/ml), which were human monocytoid cells, were cultured in the presence of 10 ng/ml IFNγ for 2 days, and they were induced to differentiate into macrophage-like cells. The differentiation-induced THP-1 cells were recovered, and the cells (5×10^4 cells/well) were then allowed to react with a predetermined concentration of test compound at room temperature for 30 minutes. Thereafter, Escherichia coli (Life Technologies) labeled with a pH-sensitive dye (pHrodo) was subjected to opsonization using an anti-Escherichia coli antibody (Life Technologies). Then, the resultant was added to the THP-1 cells obtained above, followed by incubation at 37° C. for 3 hours. Opsonized Escherichia coli and cell-permeable fluorescent dye (Calcein AM) were simultaneously added thereto, followed by quantitative determination of phagocytosis of opsonized Escherichia coli in viable cells using an IN Cell Analyzer.

[3] = tested on: THP-1 cells (TNFα secretion on human IgG-coated plate); experiment: TNFα generation assay; format: cell-based; settings: IFN-γ differentiated THP-1 cells, 7 hours, AlphaLISA, read-out: IC50 of TNFα generation inhibitory activity
How it was run: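 THP-1 cells were differentiated with 10 ng/ml IFN-γ for 2 days, then preincubated with compound for 30 min at room temperature. They were then plated at 5×10^4 cells/well on plates coated with human IgG (10 μg/ml). TNFα secreted over 7 h of culture was quantified by AlphaLISA.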

SMILES | pIC50 [1] | pIC50 [2] | pIC50 [3]
CCOc1ncc(Nc2nc(N[C@H](C3CC3)[C@H](C)N)c(F)cc2C(N)=O)cc1-n1ccnn1 [Example 2-163, 6-(((1R,2S)-2-amino-1-cyclopropylpropyl)amino)-2-((6-ethoxy-5-(1H-1,2,3-triazol-1-yl)pyridin-3-yl)amino)-5-fluoronicotinamide] | 7.30 to 8.00 | 5.52 to 6.00 | 
CSCC[C@@H](Nc1nc(Nc2cnc(C)c(-n3nccn3)c2)c(C(N)=O)cc1F)[C@H](C)N [Example 2-343, 6-(((3R,4S)-4-amino-1-(methylthio)pentan-3-yl)amino)-5-fluoro-2-((6-methyl-5-(2H-1,2,3-triazol-2-yl)pyridin-3-yl)amino)nicotinamide] | 7.30 to 8.00 | 5.52 to 6.00 | 
CCC[C@@H](Nc1nc(Nc2cnc(OC)c(-n3ccnn3)c2)c(C(N)=O)cc1F)[C@H](C)N [Example 2-205, 6-(((2S,3R)-2-aminohexan-3-yl)amino)-5-fluoro-2-((6-methoxy-5-(1H-1,2,3-triazol-1-yl)pyridin-3-yl)amino)nicotinamide] | 7.30 to 8.00 | 5.52 to 6.00 | 
COCCOc1ncc(Nc2nc(N[C@H](C3CCC3)[C@H](C)N)c(F)cc2C(N)=O)cc1F [Example 2-116, 6-(((1R,2S)-2-amino-1-cyclobutylpropyl)amino)-5-fluoro-2-((5-fluoro-6-(2-methoxyethoxy)pyridin-3-yl)amino)nicotinamide] | 7.30 to 8.00 | 5.52 to 6.00 | 
COc1ncc(Nc2nc(N[C@H](C3CC3)[C@H](C)N)c(F)cc2C(N)=O)cc1-n1nccn1 [Example 2-113, 6-(((1R,2S)-2-amino-1-cyclopropylpropyl)amino)-5-fluoro-2-((6-methoxy-5-(2H-1,2,3-triazol-2-yl)pyridin-3-yl)amino)nicotinamide] | 7.30 to 8.00 | 5.52 to 6.00 | 
COCCOc1cc(Nc2nc(N[C@H](Cc3ccccc3)[C@H](C)N)c(F)cc2C(N)=O)ccn1 [Example 2-427, 6-(((2R,3S)-3-amino-1-phenylbutan-2-yl)amino)-5-fluoro-2-((2-(2-methoxyethoxy)pyridin-4-yl)amino)nicotinamide] | 7.30 to 8.00 | 5.52 to 6.00 | 
NC(=O)c1cc(F)c(N[C@@H]2CCOC[C@@H]2N)nc1Nc1ccnc(N2CCOCC2)c1F [Example 2-231, 6-(((3R,4R)-3-aminotetrahydro-2H-pyran-4-yl)amino)-5-fluoro-2-((3-fluoro-2-morpholinopyridin-4-yl)amino)nicotinamide] | 7.30 to 8.00 | 5.52 to 6.00 | 
CCCC[C@@H](Nc1nc(Nc2cnc3c(c2)c(N(C)C)nn3C)c(C(N)=O)cc1F)[C@H](C)N [Example 2-291, 6-(((2S,3R)-2-aminoheptan-3-yl)amino)-2-((3-(dimethylamino)-1-methyl-1H-pyrazolo[3,4-b]pyridin-5-yl)amino)-5-fluoronicotinamide] | 7.30 to 8.00 | 5.52 to 6.00 | 
NC(=O)c1cc(F)c(N[C@@H]2CCOC[C@@H]2N)nc1Nc1cnc(N2CCOCC2)c(F)c1 [Example 2-217, 6-(((3R,4R)-3-aminotetrahydro-2H-pyran-4-yl)amino)-5-fluoro-2-((5-fluoro-6-morpholinopyridin-3-yl)amino)nicotinamide] | 7.00 to 7.30 | 5.52 to 6.00 | 
NC[C@@H](Cc1ccccc1)Nc1nc(Nc2cnc(N3CCOCC3)c(F)c2)c(C(N)=O)cc1F [Example 2-365, (R)-6-((1-amino-3-phenylpropan-2-yl)amino)-5-fluoro-2-((5-fluoro-6-morpholinopyridin-3-yl)amino)nicotinamide] | 7.00 to 7.30 | > 6.00 | 
COCCn1nc(OC)c2cc(Nc3nc(N[C@@H](CN)CC(C)C)c(F)cc3C(N)=O)ccc21 [Example 2-124, (R)-6-((1-amino-4-methylpentan-2-yl)amino)-5-fluoro-2-((3-methoxy-1-(2-methoxyethyl)-1H-indazol-5-yl)amino)nicotinamide] | > 8.00 | > 6.00 | 
CCn1nc(OC)c2cc(Nc3nc(N[C@H](CC4CC4)[C@H](C)N)c(F)cc3C(N)=O)ccc21 [Example 2-50, 6-(((2R,3S)-3-amino-1-cyclopropylbutan-2-yl)amino)-2-((1-ethyl-3-methoxy-1H-indazol-5-yl)amino)-5-fluoronicotinamide] | > 8.00 | > 6.00 | 
COC[C@@H](Nc1nc(Nc2cnc(C)c(-n3nccn3)c2)c(C(N)=O)cc1F)[C@H](C)N [Example 2-197, 6-(((2S,3S)-3-amino-1-methoxybutan-2-yl)amino)-5-fluoro-2-((6-methyl-5-(2H-1,2,3-triazol-2-yl)pyridin-3-yl)amino)nicotinamide] | 7.30 to 8.00 | 5.22 to 5.52 | 

Results, then the compound that gave them:

pIC50 [1] | pIC50 [2] | pIC50 [3] | SMILES
> 8.00 | > 6.00 | 6.89 to 7.19 | CC[C@@H](Nc1nc(Nc2cnc(C)c(-n3nccn3)c2)c(C(N)=O)cc1F)[C@H](C)N [Example 2-31, 6-(((2S,3R)-2-aminopentan-3-yl)amino)-5-fluoro-2-((6-methyl-5-(2H-1,2,3-triazol-2-yl)pyridin-3-yl)amino)nicotinamide]
> 8.00 | 5.52 to 6.00 | 6.89 to 7.19 | COCCn1ncc2c(Nc3nc(N[C@@H]4CCOC[C@@H]4N)c(F)cc3C(N)=O)cc(F)cc21 [Example 2-375, 6-(((3R,4R)-3-aminotetrahydro-2H-pyran-4-yl)amino)-5-fluoro-2-((6-fluoro-1-(2-methoxyethyl)-1H-indazol-4-yl)amino)nicotinamide]
> 8.00 | > 6.00 |  | COc1nn(C)c2c(F)cc(Nc3nc(N[C@H](C4CCC4)[C@H](C)N)c(F)cc3C(N)=O)cc12 [Example 2-158, 6-(((1R,2S)-2-amino-1-cyclobutylpropyl)amino)-5-fluoro-2-((7-fluoro-3-methoxy-1-methyl-1H-indazol-5-yl)amino)nicotinamide]
> 8.00 | 5.52 to 6.00 |  | CC[C@H](N)[C@@H](C)Nc1nc(Nc2cc(F)c3c(c2)c(N(C)C)nn3C)c(C(N)=O)cc1F [Example 2-194, 6-(((2R,3S)-3-aminopentan-2-yl)amino)-2-((3-(dimethylamino)-7-fluoro-1-methyl-1H-indazol-5-yl)amino)-5-fluoronicotinamide]
> 8.00 | 5.22 to 5.52 |  | Cc1ncc(Nc2nc(N[C@H](c3ccccc3)[C@H](C)N)c(F)cc2C(N)=O)cc1-n1nccn1 [Example 2-313, 6-(((1R,2S)-2-amino-1-phenylpropyl)amino)-5-fluoro-2-((6-methyl-5-(2H-1,2,3-triazol-2-yl)pyridin-3-yl)amino)nicotinamide]
> 8.00 | 5.52 to 6.00 |  | Cc1ncc(Nc2nc(N[C@@H]([C@H](C)N)[C@H]3CC3(C)C)c(F)cc2C(N)=O)cc1-n1nccn1 [Example 2-380, 6-(((1R,2S)-2-amino-1-((S)-2,2-dimethylcyclopropyl)propyl)amino)-5-fluoro-2-((6-methyl-5-(2H-1,2,3-triazol-2-yl)pyridin-3-yl)amino)nicotinamide]
> 8.00 | 5.52 to 6.00 |  | CCn1ncc2c(Nc3nc(N[C@@H](CN)CC(C)C)c(F)cc3C(N)=O)cncc21 [Example 2-405, (R)-6-((1-amino-4-methylpentan-2-yl)amino)-2-((1-ethyl-1H-pyrazolo[3,4-c]pyridin-4-yl)amino)-5-fluoronicotinamide]
> 8.00 | 5.52 to 6.00 |  | CCCC[C@@H](Nc1nc(Nc2cncc3c2cnn3CC(F)F)c(C(N)=O)cc1F)[C@H](C)N [Example 2-399, 6-(((2S,3R)-2-aminoheptan-3-yl)amino)-2-((1-(2,2-difluoroethyl)-1H-pyrazolo[3,4-c]pyridin-4-yl)amino)-5-fluoronicotinamide]
> 8.00 | 5.52 to 6.00 |  | CC[C@@H](Nc1nc(Nc2cncc3c2cnn3CC)c(C(N)=O)cc1F)[C@H](C)N [Example 2-318, 6-(((2S,3R)-2-aminopentan-3-yl)amino)-2-((1-ethyl-1H-pyrazolo[3,4-c]pyridin-4-yl)amino)-5-fluoronicotinamide]
> 8.00 | > 6.00 |  | CN(C)c1c2cc(Nc3nc(N[C@@H]4CCCC[C@@H]4N)c(F)cc3C(N)=O)ccc2nn1C [Example 2-13, 6-(((1R,2S)-2-aminocyclohexyl)amino)-2-((3-(dimethylamino)-2-methyl-2H-indazol-5-yl)amino)-5-fluoronicotinamide]
> 8.00 | 5.52 to 6.00 |  | CCC[C@@H](Nc1nc(Nc2cccc3c2cnn3CCOC)c(C(N)=O)cc1F)[C@H](C)N [Example 2-305, 6-(((2S,3R)-2-aminohexan-3-yl)amino)-5-fluoro-2-((1-(2-methoxyethyl)-1H-indazol-4-yl)amino)nicotinamide]
> 8.00 | 5.52 to 6.00 |  | NC(=O)c1cc(F)c(N[C@@H]2CCCC[C@@H]2N)nc1Nc1cncc2c1cnn2CC(F)F [Example 2-393, 6-(((1R,2S)-2-aminocyclohexyl)amino)-2-((1-(2,2-difluoroethyl)-1H-pyrazolo[3,4-c]pyridin-4-yl)amino)-5-fluoronicotinamide]
